Assay results reported in US20210308028A1, “Compositions and Methods for Maintaining and Protecting Tissue Integrity and Barrier Function” (Colgate-Palmolive Company, priority 2020, published 2021).

Assays:
[1] = system: B11 gingival keratinocytes treated with TNF-α; experiment: FITC-dextran paracellular transport with TNF-α challenge; format: cell-based, human; conditions: Example 5, FIGS. 25, 28, 31, 32; S1: the two higher percentages
Method: The ability of test composition samples to enhance epithelial barrier integrity was assessed by monitoring the paracellular transport of FITC-conjugated 4.4-kDa dextran (FD-4; Sigma-Aldrich Canada Ltd.) across the keratinocyte layer. Briefly, B11 cells were cultured on Transwell filters, and FD-4 ([…] in culture medium) was added in the apical compartment in the presence of the test composition under investigation. Fluorescence in the basolateral compartment was measured at 0, 4, 8, 24, and 48 h using a Synergy 2 microplate reader (BioTek Instrument, Winooski, Vt., USA).
(§1) Assays exposed cells to either TNFα only or TNFα+test composition. TNFα is known to cause tissue damage. A stock solution of recombinant TNF-α is prepared in sterile distilled water at 100 μg/ml. Thereafter, dilutions are made in keratinocyte culture medium. First dilution is 1/1000 to obtain 100 ng/ml. TNF-α and the test compounds are added simultaneously.
Gingival keratinocytes were cultured in the apical chamber of Transwell™ inserts as described above. Immediately after adding fluorescein isothiocyanate-conjugated dextran of 4.4 kDa (FD-4; 1 mg/ml in culture medium) to the apical compartment, the formulations under investigation were added in presence of recombinant TNF-α (100 ng/ml). Fluorescence in the basolateral compartment was recorded after 0, 2, 6, 24, and 48 h of incubation using a Synergy 2 microplate reader (BioTek Instruments; Winooski, Vt., USA).

[2] = system: B11 immortalized human gingival keratinocyte cell line; experiment: Transepithelial electrical resistance (TER) of gingival keratinocyte barrier; format: cell-based; conditions: no challenge; dilutions 1/500, 1/1000, 1/2000 or 0.025-0.2%; multiple time points; FIGS. 6, 9, 12
Method: (§2) Tight junction integrity was assessed by determining the trans-epithelial electrical resistance (TER). B11 gingival keratinocytes were seeded onto Costar™ Transwell™ clear polyester membrane inserts (6.5-mm diameter; 0.4-μm pore size; Corning Co., Cambridge, Mass., USA) at 3×10^5 cells per insert. The basolateral and apical compartments were filled with 0.6 mL and 0.1 mL of complete K-SFM, respectively. Following a 72-h incubation, the conditioned medium was replaced with antibiotic-free K-SFM, and the cells were incubated for a further 16 h. The TER values were measured using an Ohm/voltmeter (EVOM2; World Precision Instruments, Sarasota, Fla., USA) at 0, 4, 8, 24, 48, and 72 h. Resistance values were calculated in Ohms (Ω)/cm 2 by multiplying the resistance values by the filter surface area. Results were expressed as percentage of the basal control values measured at time 0 h (100% values) for each condition.

[3] = system: P. gingivalis collagenase; experiment: Proteolytic assay: collagen DQ degradation by P. gingivalis culture supernatant; format: biochemical, Porphyromonas gingivalis; conditions: Example 6, FIGS. 35, 38, 41; over 5 hours
Method: To determine the effects of formulations tested on the proteinase activity of P. gingivalis, a 48-h culture was centrifuged at 10 000×g for 10 min. […] The fluorescence corresponding to collagen degradation was monitored using a Synergy 2 microplate reader, with the excitation and emission wavelengths set at 495 nm and 525 nm, respectively. Test compounds or the fluorescent substrate alone were used as controls. For the proteolytic assay, the following ratio was used: 40% P. gingivalis supernatant+40% test compounds+20% DQ collagen. […]
To determine the effects of the Dual Zinc plus Arginine aqueous solution and dentifrice on the proteinase activity of P. gingivalis, a 48-h culture was centrifuged at 10 000×g for 10 min. Assay mixtures containing equal volumes of P. gingivalis culture supernatant, the fluorescent substrate collagen DQ™ (100 μg/mL; Molecular Probes, Eugene, Oreg., USA), and the Dual Zinc […] The fluorescence corresponding to collagen degradation was monitored using a Synergy 2 microplate reader, with the excitation and emission wavelengths set at 495 nm and 525 nm, respectively. Test compounds or the fluorescent substrate alone were used as controls. Leupeptin (1 μM) was used as a positive inhibitory control.

[4] = system: B11 gingival keratinocytes treated with TNF-α; experiment: TER with TNF-α challenge; format: cell-based, human; conditions: Example 5, FIGS. 24, 27, 29, 30
Method: as §2, §1
Keratinocyte barrier integrity was determined by monitoring transepithelial electrical resistance (TER). Briefly, keratinocytes (3×10^5 cells per insert; 0.1 ml) were seeded in the apical compartment of Costar™ Transwell™ clear polyester membrane inserts (6.5 mm in diameter, 0.4 μm pore size; Corning Co., Cambridge, Mass., USA), while the basolateral compartment was filled with 0.6 ml of culture medium. After 72-h of incubation, the conditioned culture medium was replaced with fresh antibiotic-free K-SFM, and the cells were further incubated for 16 h prior treating the cells. Recombinant human TNF-α (100 ng/ml; AnaSpec, Fremont, USA) and the formulations (final dilutions of 1/500, 1/1000, and 1/2000 (v/v for the aqueous solution; w/v for the dentifrice) under investigation were added to the apical compartment. The TER values were monitored using an ohm/voltmeter (EVOM^2; World Precision Instruments, Sarasota, Fla., USA) after 0, 6, 24, and 48 h of incubation. The TER values in Ohms (Ω)/cm^2 were determined by multiplying the resistance values by the surface area of the membrane filter. Results are expressed as the percentage of the basal control value measured at time 0-h (100% value).

[5] = system: zonula occludens-1 and occludin in B11 gingival keratinocytes; experiment: Immunofluorescent staining of zonula occludens-1 and occludin; format: cell-based, human; conditions: no challenge; Example 3, FIGS. 8, 11, 14
Method: Gingival keratinocytes treated as described above for 12 h were immunostained for zonula occludens-1 and occludin, two tight junction proteins. Briefly, the cells were fixed in 50 mM phosphate-buffered saline (pH 7.2) (PBS) containing 4% paraformaldhehyde for 20 min, permeabilized with 0.1% Triton X-100 for 10 min, and blocked in 3% non-fat milk in 20 mM Tris-HCl (pH 8), 150 mM NaCl, and 0.5% Tween 20 for 40 min. […] After washing with PBS, the cells were then treated with ProLong® Diamond antifade (Life Technologies). The slides were sealed with nail polish and were kept in the dark at 4° C. The localization of tight junction proteins in B11 cells was visualized using an Olympus FSX100 fluorescence microscope and FSX-BSW imaging software (Olympus, Tokyo, Japan). Immunofluorescent staining of tight junction proteins is a qualitative assay.
The localization of the tight junction proteins in B11 cells was visualized using an Olympus FSX100 fluorescence microscope and FSX-BSW imaging software (Olympus, Tokyo, Japan).

[6] = system: B11 gingival keratinocytes challenged with P. gingivalis; format: cell-based, human; conditions: P. gingivalis MOI=10^4; Example 4, FIGS. 15, 18, 21
Method: as §2

| SMILES | TNFα-induced paracellular permeability to FITC-dextran [1] | TER measured as a percent of the initial value [2] | inhibition of P. gingivalis collagenase activity [3] | TER with TNFα challenge [4] | immunofluorescence of tight junction proteins (Occludin, Zonula Occludens-1) [5] | TER with P. gingivalis challenge [6] |
| --- | --- | --- | --- | --- | --- | --- |
| O=C([O-])CC(O)(CC(=O)[O-])C(=O)[O-].O=C([O-])CC(O)(CC(=O)[O-])C(=O)[O-].[Zn+2].[Zn+2].[Zn+2] [zinc citrate] | protects oral tissue integrity from the deleterious effects caused by the presence of TNFα | increase in TER values with the increase in sample concentration | inhibits collagenase activity of P. gingivalis in a dose response manner | can prevent tissue from the TNFα induced TER decrease | enhances barrier integrity | protects tissue integrity from damage by P. gingivalis |
| [O]=[Zn] [zinc oxide] | protects oral tissue integrity from the deleterious effects caused by the presence of TNFα | increase in TER values with the increase in sample concentration | inhibits collagenase activity of P. gingivalis in a dose response manner | prevented tissue from the TNFα induced TER decrease | enhances barrier integrity | protects tissue integrity from damage by P. gingivalis |
